# Where two headings read alike, the source gives them in different places.
# Assays:
# [1] = DPPH radical scavenging assay; conditions: for DPPH radical scavenging: 0.003 mg/mL
# Protocol: DPPH assay was performed as described by Svinyarov. Briefly, each compound was initially dissolved in absolute methanol at a concentration of 1 mg/mL, and serial dilutions were prepared. Ascorbic acid (Asc), a well-known and potent antioxidant, was used as a positive control. A methanolic solution (100 µM) of DPPH^• was prepared daily and […]. The absorbance measurements of this solution were needed in order to check the stability of the radical through the time of analysis. Then, 100 µL of DPPH in methanol were added to 100 µL of the compounds’ solutions, and the decolorization of the purple radical to the yellow reduced form was followed at 517 nm. Determinations were recorded at several time intervals. All of the measurements were carried out in triplicate. The results were expressed as the percentage of the radical scavenged, calculated using the following formula:(1) % DPPH radical scavenging = Acontrol−Asample/Acontrol × 100 where Acontrol refers to the absorbance of the negative control and Asample refers to the absorbance of the tested compounds. The results are expressed as percentage of DPPH radical scavenging ± standard deviation (SD).
# [2] = test system: MCF-7 cells; assay: MTT cell viability assay, MCF-7; type: cell-based, human; conditions: for activity at 10 µM / activity at 50 µM / IC50: Homo sapiens, MCF7; for activity at 10 µM / activity at 50 µM / reduction of cell growth / IC50: 48 h; for activity at 10 µM / activity at 50 µM: read-out: Growth (%) MCF-7; for reduction of cell growth: in at least one of the cell lines (MCF-7, HT-29, HTB-54); for SI (selectivity index): IC50 (184B5)/IC50 (MCF-7)
# Protocol: (§1) The cell viability assay of each compound was carried out using the MTT assay. Each compound was dissolved in dimethyl sulfoxide (DMSO) at a concentration of 0.01 M. Serial dilutions were prepared with a non-supplemented culture medium. The effect of each compound on the cell viability was determined at two different concentrations (10 and 50 µM) in MCF-7, HTB-54, and HT-29 cells. In addition, the selected compounds were tested at six different concentrations between 0.1–100 µM in MCF-7, T47D, H1299, HTB-54, and 184B5 cells.
# (§2) Briefly, 1 × 10^4 tumor cells/well or 2 × 10^4 non-tumorigenic cells/well were grown in 96-well plates for 12 h. Then, these cells were incubated with either DMSO (control) or a different concentration of each of the tested compounds for 48 h. Three hours before the termination point, 20 µL of MTT were added to measure the cellular viability. The resultant formazan crystals were dissolved in 50 µL of DMSO, and the absorbance was measured at 570 and 630 nm. The results are expressed as IC50, the half maximal inhibitory concentration. This value was calculated using OriginPro 8.5.1. software (OriginLab, Northampton, MA, USA) by nonlinear curve fitting. Furthermore, the selectivity index (SI) was calculated as the ratio of the IC50 values determined for the non-malignant and the tumor cells (IC50 (184B5)/IC50 (MCF-7). The data were obtained from at least three independent experiments performed in quadruplicates.
# [3] = test system: HT-29 cells; assay: MTT cell viability assay, HT-29; type: cell-based; conditions: Homo sapiens, 48 h, read-out: Growth (%) HT-29
# Protocol: as §1, §2
# [4] = test system: HTB-54 cells; assay: MTT cell viability assay, HTB-54; type: cell-based; conditions: Homo sapiens, 48 h; for activity at 10 µM / activity at 50 µM: read-out: Growth (%) HTB-54
# Protocol: as §1, §2
# [5] = test system: H1299 cells; assay: MTT cell viability assay, H1299; type: cell-based; conditions: Homo sapiens, NCI-H1299, lung cancer cells, 48 h
# Protocol: as §1, §2
# [6] = test system: T47D cells; assay: MTT cell viability assay, T47D; type: cell-based; conditions: Homo sapiens, breast cancer cells, 48 h
# Protocol: as §1, §2
# [7] = test system: 184B5 cells; assay: MTT cell viability assay, non-malignant 184B5; type: cell-based; conditions: Homo sapiens, non-malignant breast cells, 48 h
# Protocol: as §1, §2
# [8] = ABTS radical scavenging assay; conditions: for ABTS radical scavenging: 0.03 mg/mL, after the incubation time; for ABTS radical scavenging activity compared with controls: 0.003 mg/mL
# Protocol: ABTS radical scavenging was assayed with a colorimetric test as well [59]. Briefly, ABTS was dissolved in deionized water at 1 mg/mL and oxidized to ABTS^+• with potassium persulfate (2.45 mM final concentration). This reaction mixture was kept overnight at room temperature in the dark. After radical generation, ABTS^+• was diluted with 50% ethanol until an absorbance of 0.70 ± 0.02 at 734 nm for measurements. The tested compounds were solved in absolute ethanol at a concentration of 1 mg/mL, and 20 µL of this solution were added to 180 µL of the diluted ABTS^+•. After 6 min of incubation, the absorbance at 734 nm was recorded using 50% ethanol as the blank. Trolox and Asc were used as the positive controls. All of the determinations were carried out in triplicate. The same time intervals as in the DPPH assay were also measured. The ability to scavenge ABTS^+• was calculated using the following formula:(2) % ABTS radical scavenging=Acontrol−Asample/Acontrol × 100 where Acontrol refers to the absorbance of the negative control and Asample refers to the absorbance of the tested compounds. The results are expressed as percentage of ABTS radical scavenging ± SD.
# [9] = MCF-7 and T47D pooled, read-out: IC50 on breast cancer cells
# [10] = breast cancer cells, MTT, read-out: IC50 MCF-7
# [11] = HTB-54, lung cancer cells, MTT, read-out: IC50 HTB-54
# [12] = HTB-54 and H1299 pooled, read-out: IC50 on both lung cancer cells
Compound,"DPPH inhibition compared with Asc ([1]; 0.0006 mg/mL, all time-points)",DPPH radical scavenging [1],activity at 10 µM ([2]; 10 μM),activity at 50 µM ([2]; 50 μM),activity at 10 µM [3],activity at 50 µM [3],activity at 10 µM ([4]; HTB-54),activity at 50 µM ([4]; HTB-54),reduction of cell growth ([2]; 10 μM),reduction of cell growth ([2]; 50 μM),"IC50 [2, 9]","IC50 [2, 10]","IC50 [4, 11]",IC50 [5],IC50 [6],IC50 [7],SI (selectivity index) [2],ABTS radical scavenging [8],ABTS radical scavenging activity compared with controls [8],"IC50 [4, 12]"
COc1ccc(NC(=[Se])NC(=O)c2ccccc2)cc1 [Compound 1c],greater inhibition compared with Asc,around 40%,67.8%,13.9%,74.9%,31.9%,64.4%,57.2%,–,–,–,–,–,–,–,–,–,–,–,–
O=C(NC(=[Se])Nc1ccc(Cl)cc1)c1ccccc1 [Compound 1e],–,around 40%,74%,13.9%,77.9%,33.8%,82.3%,57.2%,–,–,–,–,–,–,–,–,–,–,–,–
O=C(NC(=[Se])Nc1ccccc1)c1ccccc1Cl [Compound 2a],–,around 40%,93.6%,30.5%,79.1%,37.8%,91.3%,65.6%,–,–,–,–,–,–,–,–,–,–,–,–
CSc1ccc(Cl)c(C(=O)NC(=[Se])Nc2ccc(C)cc2)c1 [Compound 3b],–,around 40%,64.2%,24.5%,64.7%,42.5%,45.1%,22.2%,–,–,–,–,–,–,–,–,–,–,–,–
O=C(NC(=[Se])Nc1ccc(C(F)(F)F)cc1)c1cccs1 [Compound 5d],–,–,46.7%,23.5%,60.6%,29.3%,76.2%,4.3%,at least 45%,more than 85%,4.2 to 8 µM,4.2 ± 0.2 µM,14.6 ± 6.3 µM,7.5 ± 0.2 µM,6.1 ± 0.4 µM,> 100 µM,–,–,–,–
O=C(NC(=[Se])Nc1ccccc1)c1ccco1 [Compound 6a],–,–,39.9%,5%,72.6%,35.5%,72.8%,0.7%,at least 45%,more than 85%,–,3.5 ± 0.6 µM,26.1 ± 2.3 µM,30.2 ± 7.2 µM,7.8 ± 1 µM,52.2 ± 3.8 µM,14.7,–,–,–
Cc1ccc(NC(=[Se])NC(=O)C=Cc2ccccc2)cc1 [Compound 8b],–,–,95.5%,82.3%,95.3%,76.9%,85.9%,72.8%,–,–,–,–,–,–,–,–,–,below 60%,–,–
COc1ccc(NC(=[Se])NC(=O)C=Cc2ccccc2)cc1 [Compound 8c],–,–,70.2%,5.7%,73.4%,42.5%,64.1%,19.3%,–,–,–,–,–,–,–,–,–,–,potent radical scavenging activity similar to Trolox,–
O=C(NC(=[Se])Nc1ccc(C(F)(F)F)cc1)c1cc2ccccc2s1 [Compound 9d],–,–,91.1%,70.2%,61.2%,36%,84.5%,79.3%,–,–,–,–,–,–,–,–,–,below 60%,–,–
O=C(NC(=[Se])Nc1ccc(Cl)cc1)c1cc2ccccc2s1 [Compound 9e],–,–,54.8%,44.4%,45.4%,33.5%,32.9%,9%,at least 45%,more than 85%,–,9.8 ± 0.9 µM,> 100 µM,8.7 ± 1.4 µM,7.1 ± 0.6 µM,> 100 µM,>10.2,–,–,–
O=C(NC(=[Se])Nc1ccccc1)c1ccc2c(c1)OCO2 [Compound 10a],–,–,37.8%,22.4%,57.3%,49.5%,44%,13.1%,at least 45%,more than 85%,4.2 to 8 µM,4.4 ± 1 µM,> 100 µM,11.2 ± 0.8 µM,8 ± 1 µM,> 100 µM,>22.9,–,–,–
Cc1ccc(NC(=[Se])NC(=O)c2ccc3c(c2)OCO3)cc1 [Compound 10b],–,–,63%,7.4%,63.3%,43.9%,16.4%,12%,at least 45%,more than 85%,–,7.3 ± 0.3 µM,1.5 ± 1.8 µM,5.9 ± 1.4 µM,11.9 ± 1 µM,> 100 µM,>13.6,–,potent radical scavenging activity similar to Trolox,1.5 to 7.3 µM
COc1ccc(NC(=[Se])NC(=O)c2ccc3c(c2)OCO3)cc1 [Compound 10c],–,–,52.7%,15.6%,55.7%,35.5%,78.2%,5.1%,at least 45%,more than 85%,–,8.5 ± 0.6 µM,5.2 ± 4 µM,7.3 ± 0.2 µM,12.9 ± 1.5 µM,53.8 ± 10.5 µM,6.3,–,–,1.5 to 7.3 µM
O=C(NC(=[Se])Nc1ccc(C(F)(F)F)cc1)c1ccc2c(c1)OCO2 [Compound 10d],–,–,60.6%,8.4%,66.5%,13.9%,79.6%,5.1%,–,–,–,7.9 ± 0.7 µM,23.4 ± 3.2 µM,5.7 ± 0.1 µM,11.8 ± 1.9 µM,> 100 µM,>12.7,–,–,–
O=C(NC(=[Se])Nc1ccc(Cl)cc1)c1ccc2c(c1)OCO2 [Compound 10e],–,–,55.6%,16.9%,54.4%,21.4%,45.5%,6.5%,at least 45%,more than 85%,–,11.7 ± 1.5 µM,2.9 ± 3.2 µM,48.6 ± 0.9 µM,17.4 ± 3.1 µM,73.1 ± 5.2 µM,6.2,–,–,–

# Reference: PMC7023466, “Novel N,N′-Disubstituted Acylselenoureas as Potential Antioxidant and Cytotoxic Agents” (Antioxidants, 2020)
